Data reported in patent US20220105054A1, “ABSORPTION ENHANCER OF CINNAMIC ACID DERIVATIVE” (YAMADA BEE COMPANY, INC., priority 2020, published 2022).
Read-outs that look alike come from different tables or passages of the source.

Conditions: rat, in vivo; for AUC Mean ± SD / Cmax Mean ± SD: po, 50 mg/kg
Procedure: The following administration liquids were prepared. 10% propylene glycol: a propylene glycol liquid having a concentration of 10% was prepared by diluting propylene glycol with distilled water.
Propolis solution: the required amount of propolis powder (Brazilian green propolis) was weighed and ground in a mortar, and the 10% propylene glycol was added to dissolve the powder to prepare a propolis solution with a concentration of 25 mg/mL as the propolis concentration.
Curcumin suspension: the required amount of curcumin powder (C. longa extract (ethyl acetate extract powder, curcumin content of 95% by mass)) was weighed and ground in a mortar, and then the 10% propylene glycol was added to suspend the powder to prepare a curcumin suspension with a curcumin concentration of 100 mg/mL.
Eighteen 7-week-old male rats (Slc: Wistar/ST, SPF, Japan SLC, Inc.) were acclimated for 7 days. The rats were allowed to freely ingest the solid feed CRF-1 (Oriental Yeast Co., ltd.). The rats were fasted for 8 to 10 hours before the administration of the administration liquids. The rats were divided into three groups of six rats each by a stratified allocation method using EXSUS (Version 10.0.0, EP Croit Co., Ltd.) so that the weight of each group was equal.
In the propolis group, the propolis solution was administered immediately after the administration of 10% propylene glycol. In the propolis+curcumin A group, the propolis solution was administered immediately after the administration of the curcumin suspension. In the propolis+curcumin B group, the propolis solution was administered about 30 minutes after the administration of the curcumin suspension. The administration was carried out in a volume of 2 ml/kg rat body weight for each administration solution. In other words, 50 mg of propolis and 200 mg of curcumin were administered per 1 kg of rat body weight. The administration was carried out under no anesthesia by using a syringe (Terumo Corporation) and an oral feeding needle for rats (Fuchigami Kikai, Ltd).
Blood collection of rats was carried out once 30 minutes before the administration of propolis solution (but before the administration of curcumin suspension in the group with the curcumin suspension administrated) and 0.5, 1, 1.5, 2, 3, 6, 9, and 24 hours after the administration of propolis solution. At each blood sampling time, the tail of rats was disinfected with 70% ethanol under no anesthesia, and then the tip of the tail was cut with a razor to collect about 150 μL of leaking blood by using a hematocrit tube (Fisher Scientific 22-362-566). Nine hours after administration of the propolis solution, feeding was resumed for all fasting animals.
The blood, which had been stored in ice after collection, was centrifuged (1600 ×g, 10 min, 4° C.) using a micro high-speed cooling centrifuge (model MX-100: Tomy Seiko Co., Ltd.) to collect plasma from the blood. The plasma was frozen and stored in a −80° C. freezer.
The concentrations of p-coumaric acid, artepillin C, drupanin, culifolin, capillartemisin A, 3,4-dihydroxy-5-prenyl-(E)-cinnamic acid, and 2,2-dimethylchromene-6-(E)-propenoic acid, kaempferide, 6-methoxy kaempferide, and dihydro kaempferide in the resulting plasma were quantified by LCMS.
For each ingredient, the maximum blood concentration (Cmax) and the area under the curve (AUC) were calculated from the resulting concentrations. AUC is an indicator of the total amount of each ingredient absorbed into the body. […] The ratio in the table indicates the ratio of the mean value of the propolis+curcumin A group to that of the propolis group. Statistics were carried out by t-test.

| AUC Mean ± SD | Cmax Mean ± SD | AUC Ratio (male, Slc: Wistar/ST) | Cmax Ratio (male, Slc: Wistar/ST) | Compound | increase in absorption compared to the propolis group | AUC Ratio | Cmax Ratio |
| --- | --- | --- | --- | --- | --- | --- | --- |
|  |  |  |  | COc1ccc(-c2oc3cc(O)c(OC)c(O)c3c(=O)c2O)cc1 [6-methoxy kaempferide, reference compound] | no significant increase in absorption was observed |  |  |
|  |  |  |  | COc1ccc(-c2oc3cc(O)cc(O)c3c(=O)c2O)cc1 [kaempferide, reference compound] | no significant increase in absorption was observed |  |  |
| 983.44 ± 372.02 | 343.72 ± 41.6 | 1.07 | 1.42 | O=C(O)/C=C/c1ccc(O)cc1 [p-Coumaric acid] |  |  |  |
| 1088.92 ± 68.35 | 68.98 ± 5.16 |  |  | CC(C)=CCc1cc(/C=C/C(=O)O)cc2c1OC(C)(C)C=C2 [Culifolin] |  | 1.26 | 1.34 |
|  |  |  |  | COc1ccc(C2Oc3cc(O)cc(O)c3C(=O)C2O)cc1 (stereo not shown) [dihydro kaempferide, reference compound] | no significant increase in absorption was observed |  |  |
| 51.02 ± 28.27 | 7.5 ± 7.5 | 1.25 | 1.53 | CC(C)=CCc1cc(/C=C/C(=O)O)cc(O)c1O [3,4-dihydroxy-5-prenyl-(E)-cinnamic acid] |  |  |  |
| 84.5 ± 4.49 | 18.48 ± 4.02 |  |  | CC1(C)C=Cc2cc(/C=C/C(=O)O)ccc2O1 [2,2-dimethylchromene-6-(E)-propenoic acid] |  | 1.27 | 1.56 |

| Compound | AUC Mean ± SD | Cmax Mean ± SD | AUC Ratio (male, Slc: Wistar/ST) | Cmax Ratio (male, Slc: Wistar/ST) | increase in absorption compared to the propolis group | AUC Ratio | Cmax Ratio |
| --- | --- | --- | --- | --- | --- | --- | --- |
| CC(C)=CCc1cc(/C=C/C(=O)O)ccc1O [Drupanin] | 486.19 ± 34.29 | 93.12 ± 19.93 |  |  |  | 1.41 | 1.98 |
| CC(C)=CCc1cc(/C=C/C(=O)O)cc(C/C=C(\C)CO)c1O [Capillartemisin A] | 109.74 ± 12.25 | 10.39 ± 2.01 |  |  |  | 1.83 | 1.91 |
| CC(C)=CCc1cc(/C=C/C(=O)O)cc(CC=C(C)C)c1O [Artepillin C] | 811.33 ± 191.31 | 77.7 ± 13.11 |  |  |  | 1.39 | 1.7 |
